Reference: patent publication US7659296B2, “Vitamin D receptor modulators” (Eli Lilly and Company, priority 2004, dated 2010)

Assays:
Format in all cases: cell-based
RXR-VDR heterodimer = biological target: T1, RXR-VDR heterodimer (Homo sapiens, UniProt P11473); assay: RXR-VDR heterodimerization (SaOS-2 cells) test; details: Gal-4-RXR-DEF and VP16-VDR-LBD, luciferase reporter
T1 construct: add the Gal-4-RXR-DEF and VP16-VDR-LBD; expressed in transfected cells; host or cells: SaOS-2 cells
T1 sequence (P11473 127-423 limits assumed): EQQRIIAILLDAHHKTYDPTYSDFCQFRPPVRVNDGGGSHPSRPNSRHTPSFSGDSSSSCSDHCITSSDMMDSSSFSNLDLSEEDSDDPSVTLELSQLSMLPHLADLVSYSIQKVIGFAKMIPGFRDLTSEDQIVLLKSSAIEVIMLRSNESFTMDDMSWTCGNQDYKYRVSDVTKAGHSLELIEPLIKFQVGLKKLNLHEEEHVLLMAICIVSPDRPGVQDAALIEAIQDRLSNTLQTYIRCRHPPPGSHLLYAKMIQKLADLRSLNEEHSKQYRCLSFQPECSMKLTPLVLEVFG
T1 sequence (P19793 201-462 partner limits assumed): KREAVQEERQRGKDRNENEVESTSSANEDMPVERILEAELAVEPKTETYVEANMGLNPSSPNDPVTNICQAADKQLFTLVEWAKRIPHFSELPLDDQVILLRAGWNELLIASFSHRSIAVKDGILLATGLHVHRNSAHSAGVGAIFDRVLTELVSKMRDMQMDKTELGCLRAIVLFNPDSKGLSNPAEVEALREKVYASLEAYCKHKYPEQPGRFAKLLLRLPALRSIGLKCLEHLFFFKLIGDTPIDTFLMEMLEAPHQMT
Method: 1. The RXR-VDR heterodimerAssay:
This assay provides the VDR activity of a test compound. It is desirable to have low EC50 values for a compound in this assay. […] Desired assay results are EC50 values less than or equal to 600 nM. Preferred assay results are less than 250 nM, and most preferably less than 150 nM.
(1) Materials and Method for RXR-VDR Heterodimerization Assay Transfection Method: Reagents: FuGENE 6 Transfection Reagent (Roche Cat # 1 814 443); Growth Media: D-MEM High Glucose (Gibco BRL Cat # 11054-020), 10% heat inactivated FBS (Gibco BRL Cat # 10092-147), 1% antibiotic-antimycotic (Ab-Am); (Gibco BRL Cat # 15240-062). Cells: Grow SaOS-2 cells in T-150 cm^2 culture flasks in growth media keeping the density at 5-6×10^5 cells/ml. Passage cells 1:3 twice a week. Add Trypsin EDTA (Gibco BRL Cat # 25300-020) and incubate. Resuspend cells in plating media and transfer into growth media. Wash Media: HBSS Low Glucose Without Phenol Red (Gibco BRL Cat # 14175-095), 1% Ab-Am. Plating Media: D-MEM Low Glucose Without Phenol Red (Gibco BRL Cat # 11054-020), 1% Ab-Am; D-MEM; 10% Stripped FBS (Hyclone Cat# SH30068.03 Lot # AHM9371). Transfection/Treatment Media: D-MEM Low Glucose Without Phenol Red only; T-150 cm^2 culture flask: Use Corning Coastar T-150 cm^2 culture flask (Cat #430825) to grow the cells. Luciferase Assay Reagent: Use Steady-Glo Luciferase Reagent from Promega (Cat # E2550) Consists of: E2533 Assay Substrate, lypholized product and E2543 Assay Buffer. Thaw at room temperature and store. Cell Harvesting/Count: Aspirate media from culture flask, rinse cells with HBSS and aspirate. Add trypsin and incubate. When cells appear detached, resuspend cells in growth media. Transfer into a new flask with fresh growth media for passaging the cells. Plate 96 well plates and two extra plates. Mix the cell suspension using pipette. To count the cells using a Hematocytometer. Plate seeding: Use plating media 10% Stripped FBS in D-MEM Low Glucose, without Phenol Red, 1% Ab-Am. Plate 14 plates @ 165 μl/well. In sterile flask add cell suspension to plating media and mix. Add cells/well. Place the cells in the incubator. Cells should be about 75% confluent prior to transfection. DAY 2: Transfection: Step 1, DNA and Media: Add plain DMEM media to tubes for mixing the DNA; add the Reporter gene pFR-LUC; and add the Gal-4-RXR-DEF and VP16-VDR-LBD. Step 2, FuGENE and Media: Prepare plain DMEM media in a tubes for mixing FuGENE, add FuGENE 6 Transfection Reagent, and incubate. Step 3, FuGENE, DNA and Media Complex: Add FuGENE Media complex from step 2 to DNA Media complex from step 1 and incubate. Step 4, FuGENE, DNA and Media Complex to 96 well plate: Add FuGENE-DNA-Media complex from step 3 to each plate. Incubate. Day 3: Dosing: Treatment preparation. Allow for transfection time. Make a stock solution of the compounds in DMSO and vortex until all the compounds have been dissolved. Further dilute in D-MEM (Low Glucose—without Phenol Red) Add compounds in quadruplicate to give desired final volume then incubate. Day 4: Luciferase Assay: Read the plates after drug treatment. Remove part of media from all the wells and leave remainder. Add Steady-Glo Luciferase Reagent mixture/wells and incubate. Count each well using a Luminescence counter, Top Count NXT by Packard preferably set a delay between plates to reduce the background.

[1] = tested on: KERtr cells (Human skin keratinocyte); assay: Keratinocyte Proliferation Assay; details: BrdU incorporation, 72 h, read-out: Kera. Prolif. IC50
Method: The Keratinocyte Proliferation Assay
This Assay is indicative for the treatment of psoriasis. An acceptable test result is IC50 value of less than or equal to 300 nM. Preferred assay results are IC50 values of less than 100 nM.
KERtr cells (Human skin keratinocyte) are transformed with a retrovirus vector, obtained from ATCC, then are plated in 96-well flat-bottomed plates (3000 cells/well) in 100 μl keratinocyte serum free medium supplemented with bovine pituitary extract in the absence of EGF (Life Technologies, Rockville, Md.) and are incubated at 37° C. for two days. The cells are treated with various concentrations of VDR ligands (ten-fold serial dilution from 10,000 nM to 0.1 nM in triplicate), dissolved in 100 μl keratinocyte serum free medium supplemented with bovine pituitary extract in the absence of EGF and are incubated at 37° C. for 72 h. BrdU (5-bromo-2′-deoxyuridine) incorporation is analyzed as a measure of DNA replication (Cell proliferation ELISA kit, Roche Diagnostics, Indianapolis, Ind.) and absorbance is measured at 405 nm. Potency values (IC50) values were determined as the concentration (nM) of compound that elicited a half-maximal response.

rat osteocalcin promoter = assay: OCN (osteocalcin) Promoter Assay; details: RG-15 (ROS17/2.8) cells, luciferase reporter, 48 h treatment
Method: The OCN (osteocalcin) Promoter Assay
The OCN Promoter Assay is an indicator and marker for osteoporosis. Desired assay results are EC50 less than or equal to 325 nM. Preferred assay results are less than 50 nM.
The activation of osteocalcin by VDR ligands is evaluated in a rat osteoblast-like cell line RG-15 (ROS17/2.8) stably expressing rat osteocalcin promoter fused with luciferase reporter gene. The stable cell lines are established as reported before (Activation of Osteocalcin Transcription involves interaction of protein kinase A- and Protein kinase C-dependent pathways. Boguslawski, G., Hale, L. V., Yu, X.-P., Miles, R. R., Onyia, J. E., Santerre R. F., Chandrasekhar, S. J. Biol. Chem. 275, 999-1006, 2000). Confluent RG-15 cells maintained in DMEM/F-12 medium (3:1) containing 5% FBS, 300 μg/ml G418 and at 37° C. under 5% CO2/95% air atmosphere are trypsinized (0.25% trypsin) and plated into white opaque 96-well cell culture plates (25000 cells/well). After 24 h, cells (in DMEM/F-12 medium+2% FBS) are treated with various concentrations of compounds, dissolved in DMSO. The final DMSO concentration remains at 0.01% (v/v). After 48 h treatment, the medium is removed, cells are lysed with 50 μl of lysis buffer (From Luciferase reporter assay system, Roche Diagnostics, Indianapolis, Ind.) and then assayed for luciferase activity using the Luciferase Reporter Gene Assay kit from Boehringer Mannheim as per manufacturer's specifications.

For `CCC(CC)(c1ccc(OCC(=O)C(C)(C)C)c(C)c1)c1nc2cc(C(N)=O)ccc2o1` [Ex 7, 2-{1-[4-(3,3-Dimethyl-2-oxo-butoxy)-3-methyl-phenyl]-1-ethyl-propyl}-benzooxazole-5-carboxylic acid amide], the EC50 (RXR-VDR heterodimer) was 0.177 µM and the IC50 [1] was > 1 µM.

With `CCC(CC)(c1ccc(OCC(=O)C(C)(C)C)c(C)c1)c1nc2cc(C(=O)N(C)C)ccc2o1` [Ex 8, 2-{1-[4-(3,3-Dimethyl-2-oxo-butoxy)-3-methyl-phenyl]-1-ethyl-propyl}-benzooxazole-5-carboxylic acid dimethylamide] the EC50 (RXR-VDR heterodimer) was 0.117 µM and the IC50 [1] was > 1 µM.

`CCC(CC)(c1ccc(OCC(=O)C(C)(C)C)c(C)c1)c1nc2cc(C(=O)NCC(=O)O)ccc2o1` [Ex 9, [(2-{1-[4-(3,3-Dimethyl-2-oxo-butoxy)-3-methyl-phenyl]-1-ethyl-propyl}-benzooxazole-5-carbonyl)-amino]-acetic acid] was tested, and the EC50 (RXR-VDR heterodimer) was 0.15 µM and the IC50 [1] was > 1 µM.

`CCC(CC)(c1ccc(OCC(=O)C(C)(C)C)c(C)c1)c1nc2ccc(C(=O)O)cc2o1` [Ex. 1, 2-{1-[4-(3,3-dimethyl-2-oxo-butoxy)-3-methyl-phenyl]-1-ethyl-propyl}-benzooxazole-6-carboxylic acid] showed an EC50 (RXR-VDR heterodimer) of 1.12 µM and an EC50 (rat osteocalcin promoter) of 0.376 µM.

With `CCC(CC)(c1ccc(OCC(=O)C(C)(C)C)c(C)c1)c1nc2ccc(C(N)=O)cc2o1` [Ex. 2, 2-{1-[4-(3,3-Dimethyl-2-oxo-butoxy)-3-methyl-phenyl]-1-ethyl-propyl}-benzooxazole-6-carboxylic acid amide] the EC50 (RXR-VDR heterodimer) was 0.073 µM, the IC50 [1] was > 1 µM and the EC50 (rat osteocalcin promoter) was 0.289 µM.

`CCC(CC)(c1ccc(OCC(=O)C(C)(C)C)c(C)c1)c1nc2ccc(C(=O)N(C)C)cc2o1` [Ex. 3, 2-{1-[4-(3,3-Dimethyl-2-oxo-butoxy)-3-methyl-phenyl]-1-ethyl-propyl}-benzooxazole-6-carboxylic acid dimethylamide] showed an EC50 (RXR-VDR heterodimer) of 0.701 µM and an EC50 (rat osteocalcin promoter) of 1.64 µM.

Compound `CCC(CC)(c1ccc(OCC(=O)C(C)(C)C)c(C)c1)c1nc2ccc(C(=O)NCC(=O)O)cc2o1` [Ex. 4, [(2-{1-[4-(3,3-dimethyl-2-oxo-butoxy)-3-methyl-phenyl]-1-ethyl-propyl}-benzooxazole-6-carbonyl)-amino]-acetic acid] has an EC50 (RXR-VDR heterodimer) of 0.7 µM and an EC50 (rat osteocalcin promoter) of 1.17 µM.

In the case of `CCC(CC)(c1ccc(OCC(=O)C(C)(C)C)c(C)c1)c1nc2cc(C(=O)O)ccc2o1` [Ex. 5, 2-{1-[4-(3,3-Dimethyl-2-oxo-butoxy)-3-methyl-phenyl]-1-ethyl-propyl}-benzooxazole-5-carboxylic acid], the EC50 (RXR-VDR heterodimer) is reported as 0.037 µM, the IC50 [1] is reported as > 1 µM and the EC50 (rat osteocalcin promoter) is reported as 0.008 µM.

For `CCC(CC)(c1ccc(OCC(O)C(C)(C)C)c(C)c1)c1nc2cc(C(=O)O)ccc2o1` (centres unmarked) [Ex. 6, 2-{1-Ethyl-1-[4-(2-hydroxy-3,3-dimethyl-butoxy)-3-methyl-phenyl]-propyl}-benzooxazole-5-carboxylic acid], the EC50 (RXR-VDR heterodimer) was 0.005 µM and the IC50 [1] was 0.036 µM.
